B1: NM_174931 (nucleic acid, listed as Homo sapiens)
DNA: AATAGAGTCTGCACTAGGAAACTGGTGGGAGCCGAGGTCCGGAAGTCCGACGCTGGTCGGTGGGCGCATGCGCAGCGCGCGCTCTACGGCGCTGAACCGGGGCGAGCAGAGAGCTGTCAGATACTATAGCCATATGAAGTTGAACATGGCAGAAGAAGAGGACTATATGTCTGATTCCTTCATTAATGTCCAAGAAGATATCAGACCAGGATTGCCAATGCTAAGGCAAATCCGAGAAGCCCGTCGAAAAGAAGAAAAGCAACAGGAAGCCAATTTGAAAAACAGGCAGAAGAGTTTAAAAGAAGAAGAACAAGAAAGACGTGACATTGGGTTGAAGAATGCACTAGGCTGTGAAAACAAAGGGTTTGCCTTGCTCCAAAAGATGGGCTATAAAAGTGGTCAGGCACTTGGCAAGAGTGGGGGTGGTATTGTTGAACCAATTCCTCTCAATATCAAAACAGGGAAAAGTGGCATTGGTCATGAGGCATCATTAAAACGGAAAGCAGAGGAAAAATTGGAAAGCTACAGAAAAAAGATTCACATGAAAAACCAAGCTGAAGAAAAAGCTGCAGAACAGTTTCGAATGCGACTTAAAAATAAGCAAGATGAAATGAAGCTAGAAGGAGATCTCAGAAGAAGCCAGCGAGCCTGTCAACAACTGGATGTCCAGAAAAATATTCAGGTTCCCAGGGAAGCATGGTACTGGTTGAGGCTTGAAGAGGAGACTGAAGAAGATGAAGAAGAAAAAGAACAGGATGAAGATGAATATAAGAGTGAAGATTTAAGCGTACTGGAAAAATTACAAATATTGACTAGTTATTTAAGAGAAGAACATCTATATTGTATTTGGTGTGGAACAGCCTATGAAGATAAAGAAGACCTATCTTCAAATTGTCCAGGACCAACTTCTGCAGATCATGACTAAGATTATTCCCAATAAAGTGGAAACTTGAAAAATGTTATTACTTCCTAGGGATAGACAATTTAGCAGTTGGAAATCTCAAATTTTTTATGCCAGTAAAGAAAGGGGGACTTTATATAATGTTTTGTTCTTTTTGTACTTTAGAATATGAATGTTCATTGACTTGAAAAAAATAATGCAATGGCATTTCAGAACACAAGTATCACAGAGATGGACAGTTACAATTTATTGCTATATTGTGATACGTGAGGGGTTTAAGGACACCAACAGGTAACTTCTTATTCCCCTCTTCACTTTGGAACAAATTGAGAAATAAGAAATGGGAGTCAGAGGAA
B2: NM_194324 (nucleic acid, listed as Homo sapiens)
DNA: AGCACTGCAGGGCTCTGGGCGGGAAGGCTAACCTGGTGCGGAGCCAGCCTGGGTCTCAGCCCCGCGTACGGCCTTTCACGAGTCTTCAAGCCTTCAGGCTTTCTTCTAGTCAAGATGAGTGATAAACCAGACTTGTCGGAAGTGGAGAAGTTTGACAGGTCAAAACTGAAGAAAACTAATACTGAAGAAAAAAATACTCTTCCCTCAAAGGAAACTATCCAGCAGGAGAAAGAGTGTGTTCAAACATCATAAAATGGGGATCTCCTCCAAAGAGCAGATTTCAGCATTGCCTGACAGTCTTGGTTTTAGGCTTGTTTTTTTGTAAACCTGTGTGTTTGTAGAGATTTCAGACATCTTCTGATTTCTTCTCACCTATATTCCCTGGTTAAGAGGTCAGGGGTAGTGAATGTTTCCTTAAGTTCCTTTTTAAACTTCCCATTGGTATGTAAATTCCAAATGGCAGATGCTGTCAATAACCTTGCCATGGATGACCTTTGTGTAGGTAGTCCTTGCACCTCATGCAGGATAAGCCAATTTTAACTTTCTACAATGGGTGCCTCAATAGTTTCATAATCTTCATGAAGTTGCATCCTTTGGCAGCTTCTTACAGTTTATTTTCACTTCCAATGTAGCAATAAAATAATAAATATAATCGTTGTTGTCTGAAAAAAAAAAAAAAAAAA

Columns and labels:
BPLER cells [1] = experiment: Genome-wide siRNA lethality screen (primary screen), CellTiterGlo viability; assay type: cell-based, human; conditions: for Ratio: R, BPLER versus HMLER, primary screen
HMLER cells = experiment: as above; assay type: cell-based, human
BPLER cells [2] = experiment: Secondary (cherry-pick) screen with the 4 individual siRNAs of each pool
[3] = primary screen, siRNA pool, HMLER cells
[4] = validation screen with individual siRNAs of each pool

| Molecule | Ratio (BPLER cells [1]) | Fold_HMLER (HMLER cells; [3]) | Cherry Score (BPLER cells [2]; [4]) | Ratio BPLER/HMLER (BPLER cells [1]; ratio of Fold_BPLER to Fold_HMLER) | Ratio BPLER/HMLER (BPLER cells [1]; ratio of fold viability BPLER/HMLER) | MAD BPLER (BPLER cells [1]; siRNA pool against the gene, MAD score of viability in BPLER cells) | Fold BPLER (BPLER cells [1]; siRNA pool against the gene, fold viability in BPLER cells) | MAD_HMLER (HMLER cells; primary screen, siRNA pool against the gene, HMLER cells, MAD score) | Fold_HMLER (HMLER cells; primary screen, siRNA pool against the gene, HMLER cells, fold viability) | MAD HMLER (HMLER cells; siRNA pool against the gene, MAD score of viability in HMLER cells) | Fold HMLER (HMLER cells; siRNA pool against the gene, fold viability in HMLER cells) | Cherry_Score (BPLER cells [2]; secondary cherry-pick screen, 4 individual siRNAs of each pool) | Cherry Score (BPLER cells [2]; secondary screen with the 4 individual siRNAs of each pool) |
| --- | --- | --- | --- | --- | --- | --- | --- | --- | --- | --- | --- | --- | --- |
| XM_058073 | 0.73 | 0.75 | 3 | – | – | – | – | – | – | – | – | – | – |
| PRC1 | – | – | – | 0.68 | 0.68 | −3.08 | 0.409 | −2.40 | 0.60 | −2.40 | 0.60 | 1 | 1 |
| B1 | 0.72 | 0.65 | 1 | – | – | – | – | – | – | – | – | – | – |
| B2 | 0.74 | 0.87 | 1 | – | – | – | – | – | – | – | – | – | – |

Reference: patent US9689040B2, “Selective inhibitors of tumor-initiating cells” (Children's Medical Center Corporation, priority 2011, dated 2017)
